From ChEMBL document CHEMBL1139272, “Beyond the MEK-pocket: can current MEK kinase inhibitors be utilized to synthesize novel type III NCKIs? Does the MEK-pocket exist in kinases other than MEK?” (Bioorg Med Chem Lett, 2009)

Columns and labels:
[1] = Binding affinity to GSK3 at 10 uM
[2] = target: T1, Serine/threonine-protein kinase Sgk1 (Homo sapiens) (UniProt O00141); assay: Binding affinity to SGK at 10 uM
T1 sequence (whole entry): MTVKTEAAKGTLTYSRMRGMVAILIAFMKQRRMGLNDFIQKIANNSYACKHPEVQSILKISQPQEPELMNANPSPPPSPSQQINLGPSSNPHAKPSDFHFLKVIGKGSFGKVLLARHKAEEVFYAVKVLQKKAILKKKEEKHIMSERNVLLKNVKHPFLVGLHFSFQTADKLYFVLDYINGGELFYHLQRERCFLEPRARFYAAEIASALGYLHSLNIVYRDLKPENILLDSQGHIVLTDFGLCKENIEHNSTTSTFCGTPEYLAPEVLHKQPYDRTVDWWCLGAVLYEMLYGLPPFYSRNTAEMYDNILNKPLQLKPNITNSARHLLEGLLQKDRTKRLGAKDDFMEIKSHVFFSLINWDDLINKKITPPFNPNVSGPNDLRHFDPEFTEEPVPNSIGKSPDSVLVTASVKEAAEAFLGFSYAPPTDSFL

[3] = Binding affinity to NEK at 10 uM
[4] = target: Serine/threonine-protein kinase PAK 4 (Homo sapiens) (UniProt O96013); assay: Binding affinity to PAK4 at 10 uM
[5] = Binding affinity to p38 at 10 uM
[6] = target: High affinity nerve growth factor receptor (Homo sapiens) (UniProt P04629); assay: Binding affinity to TrkA at 10 uM
[7] = target: MAP kinase-activated protein kinase 2 (Homo sapiens) (UniProt P49137); assay: Binding affinity to MK2 at 10 uM
[8] = target: T2, Aurora kinase A (Homo sapiens) (UniProt O14965); assay: Binding affinity to Aurora A at 10 uM
T2 sequence (whole entry): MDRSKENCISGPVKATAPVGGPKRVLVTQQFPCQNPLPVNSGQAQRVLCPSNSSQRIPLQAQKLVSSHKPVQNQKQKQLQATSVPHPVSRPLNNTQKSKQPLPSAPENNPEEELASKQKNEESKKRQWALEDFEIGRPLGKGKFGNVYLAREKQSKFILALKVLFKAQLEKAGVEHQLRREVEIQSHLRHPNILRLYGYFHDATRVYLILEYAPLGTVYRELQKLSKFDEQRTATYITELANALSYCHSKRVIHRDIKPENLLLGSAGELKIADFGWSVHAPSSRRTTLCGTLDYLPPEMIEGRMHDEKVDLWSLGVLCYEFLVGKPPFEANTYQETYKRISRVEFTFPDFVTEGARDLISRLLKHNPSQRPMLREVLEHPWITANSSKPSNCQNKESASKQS

[9] = Binding affinity to PKC at 10 uM
Ephrin type-A receptor 2 [10] = target: T3, Ephrin type-A receptor 2 (Homo sapiens, UniProt P29317); assay: Binding affinity to EPHA2 at 10 uM
[11] = Binding affinity to p38
[12] = target: Tyrosine-protein kinase ABL1 (Homo sapiens, UniProt P00519); assay: Binding affinity to ABL
[13] = target: Dual specificity protein kinase CLK1 (Homo sapiens, UniProt P49759); assay: Binding affinity to CLK1
Aurora kinase A = target: T4, Aurora kinase A (Homo sapiens, UniProt O14965); assay: Binding affinity to Aurora A
T4 sequence (O14965 whole entry): T2 sequence (whole entry)

[14] = target: Vascular endothelial growth factor receptor 2 (Homo sapiens, UniProt P35968); assay: Binding affinity to VEGFR2
[15] = target: Mitogen-activated protein kinase kinase kinase 9 (Homo sapiens, UniProt P80192); assay: Binding affinity to MAP3K9
[16] = target: T5, Serine/threonine-protein kinase 3 (Homo sapiens, UniProt Q13188)
T5 sequence (Q13188 whole entry): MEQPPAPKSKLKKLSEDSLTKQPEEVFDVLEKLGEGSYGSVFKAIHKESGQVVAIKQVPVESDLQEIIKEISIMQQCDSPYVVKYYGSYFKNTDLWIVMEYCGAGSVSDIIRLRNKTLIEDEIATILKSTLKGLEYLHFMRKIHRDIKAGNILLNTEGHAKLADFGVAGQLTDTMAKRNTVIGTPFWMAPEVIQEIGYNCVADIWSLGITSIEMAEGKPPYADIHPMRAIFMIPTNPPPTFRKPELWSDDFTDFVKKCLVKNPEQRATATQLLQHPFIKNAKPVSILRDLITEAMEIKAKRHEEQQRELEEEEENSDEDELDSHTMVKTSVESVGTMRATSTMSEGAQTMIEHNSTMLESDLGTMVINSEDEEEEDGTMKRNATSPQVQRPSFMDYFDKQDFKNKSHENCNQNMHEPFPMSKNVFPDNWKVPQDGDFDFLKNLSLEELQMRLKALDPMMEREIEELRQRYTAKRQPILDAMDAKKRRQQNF

Ephrin type-A receptor 2 [17] = target: T3, Ephrin type-A receptor 2; assay: Binding affinity to ECK
[18] = target: Proto-oncogene tyrosine-protein kinase Src (Homo sapiens, UniProt P12931); assay: Binding affinity to SRC
[19] = target: Protein kinase C beta type (Homo sapiens, UniProt P05771); assay: Binding affinity to PKC beta2
[20] = target: Fibroblast growth factor receptor 1 (Homo sapiens, UniProt P11362); assay: Binding affinity to FGFR1
[21] = target: Tyrosine-protein kinase BTK (Homo sapiens, UniProt Q06187)
[22] = target: Tyrosine-protein kinase Lck (Homo sapiens, UniProt P06239)
[23] = Binding affinity to MEK

Sequence of Serine/threonine-protein kinase PAK 4 (Homo sapiens) (O96013 whole entry, looked up): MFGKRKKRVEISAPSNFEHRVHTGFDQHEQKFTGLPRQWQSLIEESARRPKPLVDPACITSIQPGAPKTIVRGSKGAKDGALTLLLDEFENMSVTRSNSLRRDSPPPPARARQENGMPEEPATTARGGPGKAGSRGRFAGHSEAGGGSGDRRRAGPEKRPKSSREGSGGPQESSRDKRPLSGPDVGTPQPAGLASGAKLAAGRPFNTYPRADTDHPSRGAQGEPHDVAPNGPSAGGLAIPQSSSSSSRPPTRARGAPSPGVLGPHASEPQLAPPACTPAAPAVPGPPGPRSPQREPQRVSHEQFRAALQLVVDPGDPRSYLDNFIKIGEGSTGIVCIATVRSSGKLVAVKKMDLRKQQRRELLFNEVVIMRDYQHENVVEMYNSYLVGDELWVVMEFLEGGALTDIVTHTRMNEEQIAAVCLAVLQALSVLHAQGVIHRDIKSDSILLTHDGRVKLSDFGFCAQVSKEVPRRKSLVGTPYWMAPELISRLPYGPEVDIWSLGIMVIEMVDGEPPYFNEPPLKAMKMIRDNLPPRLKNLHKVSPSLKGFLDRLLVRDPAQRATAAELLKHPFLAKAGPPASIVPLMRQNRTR
Sequence of Vascular endothelial growth factor receptor 2 (P35968 whole entry): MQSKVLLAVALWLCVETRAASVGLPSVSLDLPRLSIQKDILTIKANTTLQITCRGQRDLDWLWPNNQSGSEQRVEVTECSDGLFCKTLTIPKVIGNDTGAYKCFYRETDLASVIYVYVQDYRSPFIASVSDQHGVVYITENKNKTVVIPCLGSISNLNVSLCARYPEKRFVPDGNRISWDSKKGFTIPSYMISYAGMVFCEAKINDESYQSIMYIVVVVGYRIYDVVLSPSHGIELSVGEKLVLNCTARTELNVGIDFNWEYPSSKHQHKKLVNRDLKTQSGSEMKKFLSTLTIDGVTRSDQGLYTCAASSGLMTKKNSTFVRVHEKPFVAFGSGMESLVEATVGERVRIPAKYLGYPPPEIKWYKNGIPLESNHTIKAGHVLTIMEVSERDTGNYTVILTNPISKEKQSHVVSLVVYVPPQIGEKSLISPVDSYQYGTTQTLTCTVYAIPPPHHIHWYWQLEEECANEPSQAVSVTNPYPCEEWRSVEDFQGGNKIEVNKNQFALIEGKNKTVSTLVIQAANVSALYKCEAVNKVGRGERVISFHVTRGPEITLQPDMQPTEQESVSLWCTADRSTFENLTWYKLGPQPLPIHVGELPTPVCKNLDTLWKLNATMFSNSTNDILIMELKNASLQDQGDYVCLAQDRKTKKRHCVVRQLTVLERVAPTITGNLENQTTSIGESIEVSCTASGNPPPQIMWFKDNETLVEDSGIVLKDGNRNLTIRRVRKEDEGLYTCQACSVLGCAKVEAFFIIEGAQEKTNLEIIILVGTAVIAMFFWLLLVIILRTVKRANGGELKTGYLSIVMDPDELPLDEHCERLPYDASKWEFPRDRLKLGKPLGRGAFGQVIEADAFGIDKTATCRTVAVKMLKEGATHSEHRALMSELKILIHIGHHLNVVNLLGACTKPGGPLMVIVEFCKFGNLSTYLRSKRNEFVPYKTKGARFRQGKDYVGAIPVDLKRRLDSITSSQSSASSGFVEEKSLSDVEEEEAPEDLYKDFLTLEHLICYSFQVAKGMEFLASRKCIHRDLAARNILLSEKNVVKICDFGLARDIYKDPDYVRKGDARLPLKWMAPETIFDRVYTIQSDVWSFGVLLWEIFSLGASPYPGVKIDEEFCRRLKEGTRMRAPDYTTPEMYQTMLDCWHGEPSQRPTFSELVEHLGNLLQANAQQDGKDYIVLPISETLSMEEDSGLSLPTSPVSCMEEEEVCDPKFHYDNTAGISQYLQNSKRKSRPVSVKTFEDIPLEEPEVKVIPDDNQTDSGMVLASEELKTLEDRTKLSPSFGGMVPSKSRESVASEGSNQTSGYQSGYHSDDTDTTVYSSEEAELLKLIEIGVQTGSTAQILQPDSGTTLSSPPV
Sequence of Tyrosine-protein kinase ABL1 (P00519 whole entry): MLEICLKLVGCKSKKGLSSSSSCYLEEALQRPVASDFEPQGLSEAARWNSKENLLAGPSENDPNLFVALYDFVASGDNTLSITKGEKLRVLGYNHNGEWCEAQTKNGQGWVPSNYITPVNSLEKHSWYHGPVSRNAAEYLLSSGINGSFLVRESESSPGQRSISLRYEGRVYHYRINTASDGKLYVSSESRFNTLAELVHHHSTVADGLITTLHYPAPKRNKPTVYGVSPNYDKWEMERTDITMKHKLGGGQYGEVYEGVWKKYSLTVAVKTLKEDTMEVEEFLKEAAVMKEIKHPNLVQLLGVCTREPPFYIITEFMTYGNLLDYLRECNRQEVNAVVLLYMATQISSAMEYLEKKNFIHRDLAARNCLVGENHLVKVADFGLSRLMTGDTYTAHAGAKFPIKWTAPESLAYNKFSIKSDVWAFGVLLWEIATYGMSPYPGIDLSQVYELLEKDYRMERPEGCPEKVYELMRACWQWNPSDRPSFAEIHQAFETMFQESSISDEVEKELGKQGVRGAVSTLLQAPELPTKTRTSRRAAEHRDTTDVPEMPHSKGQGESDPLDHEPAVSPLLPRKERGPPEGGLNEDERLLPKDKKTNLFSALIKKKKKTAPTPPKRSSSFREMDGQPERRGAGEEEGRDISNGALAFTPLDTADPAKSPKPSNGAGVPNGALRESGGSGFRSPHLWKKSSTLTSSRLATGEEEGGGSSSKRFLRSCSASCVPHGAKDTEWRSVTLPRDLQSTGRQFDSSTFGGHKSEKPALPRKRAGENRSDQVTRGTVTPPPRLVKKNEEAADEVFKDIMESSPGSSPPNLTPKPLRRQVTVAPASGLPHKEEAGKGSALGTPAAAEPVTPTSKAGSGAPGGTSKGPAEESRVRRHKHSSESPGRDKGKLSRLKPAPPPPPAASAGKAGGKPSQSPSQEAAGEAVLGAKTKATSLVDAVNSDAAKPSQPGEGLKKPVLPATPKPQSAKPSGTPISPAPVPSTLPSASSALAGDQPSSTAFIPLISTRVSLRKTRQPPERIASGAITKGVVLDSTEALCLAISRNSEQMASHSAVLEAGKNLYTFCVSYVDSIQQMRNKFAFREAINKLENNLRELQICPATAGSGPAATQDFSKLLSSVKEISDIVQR
Sequence of High affinity nerve growth factor receptor (Homo sapiens) (P04629 33-796 limits assumed): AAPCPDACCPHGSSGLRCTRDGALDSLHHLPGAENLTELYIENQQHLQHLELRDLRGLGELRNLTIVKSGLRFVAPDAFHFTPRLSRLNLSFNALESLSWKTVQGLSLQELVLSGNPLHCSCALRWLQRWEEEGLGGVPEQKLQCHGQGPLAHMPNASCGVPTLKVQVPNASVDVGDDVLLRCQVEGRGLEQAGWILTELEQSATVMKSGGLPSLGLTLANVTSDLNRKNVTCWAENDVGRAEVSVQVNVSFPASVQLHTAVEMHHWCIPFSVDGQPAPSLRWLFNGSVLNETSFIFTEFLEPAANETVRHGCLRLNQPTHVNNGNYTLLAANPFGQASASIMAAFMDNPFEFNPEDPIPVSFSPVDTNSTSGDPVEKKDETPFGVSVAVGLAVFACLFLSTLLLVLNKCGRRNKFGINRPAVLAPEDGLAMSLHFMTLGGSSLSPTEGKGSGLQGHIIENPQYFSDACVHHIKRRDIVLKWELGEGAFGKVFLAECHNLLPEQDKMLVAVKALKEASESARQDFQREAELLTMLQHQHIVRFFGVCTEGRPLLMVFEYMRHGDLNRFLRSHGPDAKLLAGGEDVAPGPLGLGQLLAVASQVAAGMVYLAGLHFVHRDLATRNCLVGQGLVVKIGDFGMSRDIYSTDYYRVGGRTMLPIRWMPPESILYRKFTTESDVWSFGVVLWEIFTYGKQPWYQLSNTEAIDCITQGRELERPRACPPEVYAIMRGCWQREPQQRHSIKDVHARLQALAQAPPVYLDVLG
Sequence of Mitogen-activated protein kinase kinase kinase 9 (P80192 whole entry): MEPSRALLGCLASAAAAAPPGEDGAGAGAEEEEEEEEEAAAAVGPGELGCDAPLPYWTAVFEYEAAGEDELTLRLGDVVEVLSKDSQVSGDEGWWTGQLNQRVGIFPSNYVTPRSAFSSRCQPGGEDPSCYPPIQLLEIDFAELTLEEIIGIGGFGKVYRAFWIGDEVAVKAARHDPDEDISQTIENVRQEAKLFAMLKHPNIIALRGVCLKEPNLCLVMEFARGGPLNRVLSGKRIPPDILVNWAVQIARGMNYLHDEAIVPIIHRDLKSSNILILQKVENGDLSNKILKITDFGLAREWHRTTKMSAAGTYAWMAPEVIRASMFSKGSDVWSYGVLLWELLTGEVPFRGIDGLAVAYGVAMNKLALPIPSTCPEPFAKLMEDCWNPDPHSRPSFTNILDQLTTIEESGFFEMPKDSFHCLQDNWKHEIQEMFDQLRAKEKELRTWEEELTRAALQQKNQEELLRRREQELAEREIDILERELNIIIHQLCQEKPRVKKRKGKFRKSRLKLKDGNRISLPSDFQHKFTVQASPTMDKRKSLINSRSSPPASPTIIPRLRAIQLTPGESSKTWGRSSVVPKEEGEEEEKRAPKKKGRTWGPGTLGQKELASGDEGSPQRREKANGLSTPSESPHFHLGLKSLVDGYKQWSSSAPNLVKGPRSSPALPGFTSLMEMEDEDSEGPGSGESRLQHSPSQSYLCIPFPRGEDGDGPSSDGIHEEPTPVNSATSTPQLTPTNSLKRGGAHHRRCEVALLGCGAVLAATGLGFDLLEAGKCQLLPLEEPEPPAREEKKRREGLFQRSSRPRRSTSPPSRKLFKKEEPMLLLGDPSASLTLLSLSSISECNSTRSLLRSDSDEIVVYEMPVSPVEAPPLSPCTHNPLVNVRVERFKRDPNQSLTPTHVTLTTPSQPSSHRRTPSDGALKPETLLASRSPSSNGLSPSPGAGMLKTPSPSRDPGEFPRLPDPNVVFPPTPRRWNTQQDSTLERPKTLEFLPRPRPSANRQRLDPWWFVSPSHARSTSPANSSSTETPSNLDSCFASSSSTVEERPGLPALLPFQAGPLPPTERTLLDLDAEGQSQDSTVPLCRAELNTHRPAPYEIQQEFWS

| SMILES | inhibition [1] | inhibition [2] | inhibition [3] | inhibition [4] | inhibition [5] | inhibition [6] | inhibition [7] | inhibition [8] | inhibition [9] | inhibition (Ephrin type-A receptor 2 [10]) | IC50 [11] | IC50 [12] | IC50 [13] | IC50 (Aurora kinase A) | IC50 [14] | IC50 (Ephrin type-A receptor 2 [17]) | IC50 [18] | IC50 [19] | IC50 [20] | also measured |
| --- | --- | --- | --- | --- | --- | --- | --- | --- | --- | --- | --- | --- | --- | --- | --- | --- | --- | --- | --- | --- |
| O=C(NOCCO)c1cc(COCCO)c(F)c(F)c1Nc1ccc(I)cc1F | 25% | 0% | 13% | 22% | 5% | 27% | 5% | 2% | 0% | 13% | – | – | – | – | – | – | – | – | – | – |
| O=C(N/N=C/c1cc(C(=O)O)c(Nc2ccc(I)cc2F)c(F)c1F)c1ccc(CO)o1 | – | – | – | – | – | – | – | – | – | – | 5 µM | 0.3 µM | 15 µM | 3 µM | 3 µM | 3 µM | 0.1 µM | > 30 µM | 2 µM | IC50 [15]: 4 µM; IC50 [16]: > 30 µM |
| O=C(CS(=O)(=O)c1ccc(Cl)cc1)N/N=C/c1cc(C(=O)O)c(Nc2ccc(I)cc2F)c(F)c1F | – | – | – | – | – | – | – | – | – | – | 10 µM | 4 µM | 3 µM | 4 µM | > 30 µM | > 30 µM | 3 µM | > 30 µM | > 30 µM | IC50 [21]: > 30 µM |
| O=C(O)c1ccc(F)c(F)c1Nc1ccc(I)cc1Cl [ZAPNOMETINIB] | – | – | – | – | – | – | – | – | – | – | – | – | – | – | – | – | – | – | – | IC50 [23]: 0.00573 µM |
| Cc1cc(I)ccc1Nc1c(C(=O)O)ccc(F)c1F | – | – | – | – | – | – | – | – | – | – | – | – | – | – | – | – | – | – | – | IC50 [23]: 0.011 µM |
| O=C(NOCCO)c1ccc(F)c(F)c1Nc1ccc(I)cc1F | 0% | 0% | 2% | 10% | 5% | 14% | 9% | 11% | 9% | 9% | – | – | – | – | – | – | – | – | – | – |
| COCCCNC(=O)N/N=C/c1cc(C(=O)NOCCO)c(Nc2ccc(I)cc2F)c(F)c1F | 16% | 0% | 0% | 0% | 31% | 0% | 1% | 0% | 10% | 7% | – | – | – | – | – | – | – | – | – | – |

More lines, main results first:

| inhibition [1] | inhibition [2] | inhibition [3] | inhibition [4] | inhibition [5] | inhibition [6] | inhibition [7] | inhibition [8] | inhibition [9] | inhibition (Ephrin type-A receptor 2 [10]) | IC50 [11] | IC50 [12] | IC50 [13] | IC50 (Aurora kinase A) | IC50 [14] | IC50 (Ephrin type-A receptor 2 [17]) | IC50 [18] | IC50 [19] | IC50 [20] | SMILES | also measured |
| --- | --- | --- | --- | --- | --- | --- | --- | --- | --- | --- | --- | --- | --- | --- | --- | --- | --- | --- | --- | --- |
| 5% | 0% | 0% | 0% | 1% | 0% | 2% | 5% | 1% | 9% | – | – | – | – | – | – | – | – | – | O=C(NOCCO)c1cc(/C=N/OCCO)c(F)c(F)c1Nc1ccc(I)cc1F | – |
| – | – | – | – | – | – | – | – | – | – | > 30 µM | > 30 µM | > 30 µM | 2 µM | > 30 µM | > 30 µM | 4 µM | 2 µM | > 30 µM | NC(=O)C[C@H](N)C(=O)NCc1cc(C(=O)O)c(Nc2ccc(I)cc2F)c(F)c1F | IC50 [15]: > 30 µM; IC50 [16]: 6 µM; IC50 [22]: > 30 µM; IC50 [21]: > 30 µM |
| 22% | 39% | 25% | 33% | 4% | 1% | 18% | 29% | 25% | 37% | – | – | – | – | – | – | – | – | – | O=C(O)CCCO/N=C/c1cc(C(=O)NOCCO)c(Nc2ccc(I)cc2F)c(F)c1F | – |
| 36% | 60% | 20% | 28% | 19% | 0% | 28% | 21% | 27% | 22% | – | – | – | – | – | – | – | – | – | O=C(O)c1ccc(CO/N=C/c2cc(C(=O)NOCCO)c(Nc3ccc(I)cc3F)c(F)c2F)o1 | – |
| – | – | – | – | – | – | – | – | – | – | > 30 µM | > 30 µM | > 30 µM | 1 µM | 18 µM | > 30 µM | > 30 µM | > 30 µM | > 30 µM | CS(=O)(=O)c1ccc(CNCc2cc(C(=O)O)c(Nc3ccc(I)cc3F)c(F)c2F)cc1 | IC50 [15]: 5 µM; IC50 [22]: > 30 µM; IC50 [21]: > 30 µM |
